Columns and labels:
[1] = target: T1, Peroxisome proliferator-activated receptor gamma (Homo sapiens, UniProt P37231); type: functional
T1 sequence (P37231 whole entry): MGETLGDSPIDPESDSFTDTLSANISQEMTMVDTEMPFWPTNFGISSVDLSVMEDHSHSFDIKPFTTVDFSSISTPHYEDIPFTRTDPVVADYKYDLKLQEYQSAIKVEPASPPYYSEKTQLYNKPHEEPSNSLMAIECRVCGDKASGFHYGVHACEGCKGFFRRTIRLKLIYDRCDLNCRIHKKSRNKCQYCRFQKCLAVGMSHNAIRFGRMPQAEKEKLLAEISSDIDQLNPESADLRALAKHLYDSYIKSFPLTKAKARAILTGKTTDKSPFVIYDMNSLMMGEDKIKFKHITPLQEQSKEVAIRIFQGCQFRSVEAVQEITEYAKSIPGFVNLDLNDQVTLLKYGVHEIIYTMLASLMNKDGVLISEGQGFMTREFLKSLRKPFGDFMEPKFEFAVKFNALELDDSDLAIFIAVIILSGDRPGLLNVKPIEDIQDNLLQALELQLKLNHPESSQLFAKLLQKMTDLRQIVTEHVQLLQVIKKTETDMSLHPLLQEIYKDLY

Androgen receptor = target: T2, Androgen receptor (Rattus norvegicus, UniProt P15207); type: functional
T2 sequence (P15207 whole entry): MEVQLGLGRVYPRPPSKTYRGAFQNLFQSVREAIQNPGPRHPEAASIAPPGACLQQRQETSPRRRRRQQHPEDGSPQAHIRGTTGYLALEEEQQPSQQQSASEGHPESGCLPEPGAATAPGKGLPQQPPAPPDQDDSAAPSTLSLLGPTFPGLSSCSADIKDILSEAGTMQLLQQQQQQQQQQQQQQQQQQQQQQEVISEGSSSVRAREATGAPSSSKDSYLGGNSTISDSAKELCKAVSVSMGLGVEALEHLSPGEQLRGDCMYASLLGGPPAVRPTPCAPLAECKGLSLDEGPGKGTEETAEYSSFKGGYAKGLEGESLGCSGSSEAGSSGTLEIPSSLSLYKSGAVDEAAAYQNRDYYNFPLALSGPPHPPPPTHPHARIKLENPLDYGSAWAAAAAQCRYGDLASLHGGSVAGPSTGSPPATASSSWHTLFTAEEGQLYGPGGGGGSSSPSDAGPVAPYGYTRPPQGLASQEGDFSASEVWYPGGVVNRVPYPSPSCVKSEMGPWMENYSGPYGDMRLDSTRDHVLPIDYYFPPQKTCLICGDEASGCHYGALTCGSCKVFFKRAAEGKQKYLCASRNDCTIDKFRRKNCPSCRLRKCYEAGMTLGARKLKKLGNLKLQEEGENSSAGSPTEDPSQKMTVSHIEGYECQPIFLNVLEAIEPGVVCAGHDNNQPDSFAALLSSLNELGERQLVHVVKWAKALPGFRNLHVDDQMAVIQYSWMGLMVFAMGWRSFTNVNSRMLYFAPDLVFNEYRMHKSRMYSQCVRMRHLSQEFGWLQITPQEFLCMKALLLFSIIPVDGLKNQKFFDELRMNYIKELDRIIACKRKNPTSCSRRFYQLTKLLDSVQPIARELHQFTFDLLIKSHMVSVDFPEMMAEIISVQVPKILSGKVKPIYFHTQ

[2] = target: Sodium channel protein type 5 subunit alpha (Homo sapiens, UniProt Q14524); type: functional, cell-based
[3] = target: Gamma-aminobutyric acid receptor subunit alpha-1/alpha-2/beta-2/gamma-2 (Homo sapiens, UniProt P14867+P18507+P47869+P47870); type: functional, cell-based
Histamine H2 receptor = Histamine H2 receptor (Homo sapiens, UniProt P25021)
[4] = target: T3, Muscarinic acetylcholine receptor M2 (Homo sapiens, UniProt P08172)
T3 sequence (P08172 whole entry): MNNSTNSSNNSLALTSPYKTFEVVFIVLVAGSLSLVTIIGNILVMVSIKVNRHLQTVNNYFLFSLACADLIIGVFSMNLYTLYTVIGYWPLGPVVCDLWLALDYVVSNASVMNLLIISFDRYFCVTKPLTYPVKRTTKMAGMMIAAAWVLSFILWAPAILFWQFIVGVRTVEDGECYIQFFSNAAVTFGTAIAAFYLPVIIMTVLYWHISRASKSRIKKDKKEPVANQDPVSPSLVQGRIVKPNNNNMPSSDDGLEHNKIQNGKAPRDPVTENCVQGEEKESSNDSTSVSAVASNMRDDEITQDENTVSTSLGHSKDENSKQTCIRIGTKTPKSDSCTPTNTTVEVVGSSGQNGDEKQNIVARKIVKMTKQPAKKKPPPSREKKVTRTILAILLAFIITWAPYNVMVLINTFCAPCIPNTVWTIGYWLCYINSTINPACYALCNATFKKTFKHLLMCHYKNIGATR

D(1A) dopamine receptor = D(1A) dopamine receptor (Homo sapiens, UniProt P21728)
[5] = target: T4, Muscarinic acetylcholine receptor M5 (Homo sapiens, UniProt P08912)
T4 sequence (P08912 whole entry): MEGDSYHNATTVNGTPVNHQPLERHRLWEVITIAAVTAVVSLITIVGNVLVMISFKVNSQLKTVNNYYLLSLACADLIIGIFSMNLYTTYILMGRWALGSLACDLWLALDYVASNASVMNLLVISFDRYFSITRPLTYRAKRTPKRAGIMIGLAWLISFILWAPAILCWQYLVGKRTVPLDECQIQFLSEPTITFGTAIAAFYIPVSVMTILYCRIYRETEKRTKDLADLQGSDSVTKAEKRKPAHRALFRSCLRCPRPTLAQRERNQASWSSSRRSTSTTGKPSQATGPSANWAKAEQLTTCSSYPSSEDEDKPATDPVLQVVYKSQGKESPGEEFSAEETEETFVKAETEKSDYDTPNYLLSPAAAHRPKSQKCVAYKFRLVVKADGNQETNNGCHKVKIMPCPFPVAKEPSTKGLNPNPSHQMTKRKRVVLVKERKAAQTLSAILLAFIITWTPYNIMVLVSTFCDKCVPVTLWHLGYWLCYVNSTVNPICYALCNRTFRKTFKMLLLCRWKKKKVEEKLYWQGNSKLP

[6] = target: 5-hydroxytryptamine receptor 6 (Homo sapiens, UniProt P50406)
[7] = target: 5-hydroxytryptamine receptor 7 (Homo sapiens, UniProt P34969)
Cannabinoid receptor 1 = Cannabinoid receptor 1 (Homo sapiens, UniProt P21554); type: functional
[8] = target: Gamma-aminobutyric acid type B receptor subunit 1 (Homo sapiens, UniProt Q9UBS5)
Also: assay procedure not described here.

Sequence of Histamine H2 receptor (P25021 whole entry): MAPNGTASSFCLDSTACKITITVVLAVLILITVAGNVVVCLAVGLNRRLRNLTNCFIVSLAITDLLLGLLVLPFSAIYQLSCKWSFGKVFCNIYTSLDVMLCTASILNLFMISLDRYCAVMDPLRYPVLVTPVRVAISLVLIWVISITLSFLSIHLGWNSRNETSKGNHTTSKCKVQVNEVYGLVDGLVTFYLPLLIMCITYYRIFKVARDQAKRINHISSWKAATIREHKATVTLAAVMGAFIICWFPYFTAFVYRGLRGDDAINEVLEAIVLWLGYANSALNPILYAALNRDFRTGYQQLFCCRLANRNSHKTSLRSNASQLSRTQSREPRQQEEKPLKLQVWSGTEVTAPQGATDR
Sequence of D(1A) dopamine receptor (P21728 whole entry): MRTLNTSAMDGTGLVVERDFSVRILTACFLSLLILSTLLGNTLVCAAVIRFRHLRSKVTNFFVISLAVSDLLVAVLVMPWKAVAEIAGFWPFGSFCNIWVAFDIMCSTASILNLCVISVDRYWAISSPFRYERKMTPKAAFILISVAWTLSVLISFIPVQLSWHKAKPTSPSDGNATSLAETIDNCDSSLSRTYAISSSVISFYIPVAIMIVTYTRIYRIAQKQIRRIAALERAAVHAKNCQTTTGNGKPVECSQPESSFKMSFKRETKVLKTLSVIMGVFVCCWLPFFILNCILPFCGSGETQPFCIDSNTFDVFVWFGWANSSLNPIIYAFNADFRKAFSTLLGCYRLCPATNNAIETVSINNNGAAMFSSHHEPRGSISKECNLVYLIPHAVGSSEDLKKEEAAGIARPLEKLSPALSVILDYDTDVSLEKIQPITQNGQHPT
Sequence of Cannabinoid receptor 1 (P21554 whole entry): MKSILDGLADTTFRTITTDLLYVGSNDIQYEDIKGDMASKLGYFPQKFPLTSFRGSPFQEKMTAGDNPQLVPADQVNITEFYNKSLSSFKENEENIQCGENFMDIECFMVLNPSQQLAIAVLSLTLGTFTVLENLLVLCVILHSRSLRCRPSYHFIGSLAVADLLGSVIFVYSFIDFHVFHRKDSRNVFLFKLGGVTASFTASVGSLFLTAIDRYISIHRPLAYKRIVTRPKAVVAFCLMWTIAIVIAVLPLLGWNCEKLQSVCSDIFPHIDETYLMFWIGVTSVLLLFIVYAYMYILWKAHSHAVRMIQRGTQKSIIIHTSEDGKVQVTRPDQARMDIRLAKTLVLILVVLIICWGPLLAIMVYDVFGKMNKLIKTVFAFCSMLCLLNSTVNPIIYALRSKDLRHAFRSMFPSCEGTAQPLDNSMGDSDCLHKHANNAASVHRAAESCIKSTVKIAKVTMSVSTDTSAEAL
Sequence of Sodium channel protein type 5 subunit alpha (Q14524 whole entry): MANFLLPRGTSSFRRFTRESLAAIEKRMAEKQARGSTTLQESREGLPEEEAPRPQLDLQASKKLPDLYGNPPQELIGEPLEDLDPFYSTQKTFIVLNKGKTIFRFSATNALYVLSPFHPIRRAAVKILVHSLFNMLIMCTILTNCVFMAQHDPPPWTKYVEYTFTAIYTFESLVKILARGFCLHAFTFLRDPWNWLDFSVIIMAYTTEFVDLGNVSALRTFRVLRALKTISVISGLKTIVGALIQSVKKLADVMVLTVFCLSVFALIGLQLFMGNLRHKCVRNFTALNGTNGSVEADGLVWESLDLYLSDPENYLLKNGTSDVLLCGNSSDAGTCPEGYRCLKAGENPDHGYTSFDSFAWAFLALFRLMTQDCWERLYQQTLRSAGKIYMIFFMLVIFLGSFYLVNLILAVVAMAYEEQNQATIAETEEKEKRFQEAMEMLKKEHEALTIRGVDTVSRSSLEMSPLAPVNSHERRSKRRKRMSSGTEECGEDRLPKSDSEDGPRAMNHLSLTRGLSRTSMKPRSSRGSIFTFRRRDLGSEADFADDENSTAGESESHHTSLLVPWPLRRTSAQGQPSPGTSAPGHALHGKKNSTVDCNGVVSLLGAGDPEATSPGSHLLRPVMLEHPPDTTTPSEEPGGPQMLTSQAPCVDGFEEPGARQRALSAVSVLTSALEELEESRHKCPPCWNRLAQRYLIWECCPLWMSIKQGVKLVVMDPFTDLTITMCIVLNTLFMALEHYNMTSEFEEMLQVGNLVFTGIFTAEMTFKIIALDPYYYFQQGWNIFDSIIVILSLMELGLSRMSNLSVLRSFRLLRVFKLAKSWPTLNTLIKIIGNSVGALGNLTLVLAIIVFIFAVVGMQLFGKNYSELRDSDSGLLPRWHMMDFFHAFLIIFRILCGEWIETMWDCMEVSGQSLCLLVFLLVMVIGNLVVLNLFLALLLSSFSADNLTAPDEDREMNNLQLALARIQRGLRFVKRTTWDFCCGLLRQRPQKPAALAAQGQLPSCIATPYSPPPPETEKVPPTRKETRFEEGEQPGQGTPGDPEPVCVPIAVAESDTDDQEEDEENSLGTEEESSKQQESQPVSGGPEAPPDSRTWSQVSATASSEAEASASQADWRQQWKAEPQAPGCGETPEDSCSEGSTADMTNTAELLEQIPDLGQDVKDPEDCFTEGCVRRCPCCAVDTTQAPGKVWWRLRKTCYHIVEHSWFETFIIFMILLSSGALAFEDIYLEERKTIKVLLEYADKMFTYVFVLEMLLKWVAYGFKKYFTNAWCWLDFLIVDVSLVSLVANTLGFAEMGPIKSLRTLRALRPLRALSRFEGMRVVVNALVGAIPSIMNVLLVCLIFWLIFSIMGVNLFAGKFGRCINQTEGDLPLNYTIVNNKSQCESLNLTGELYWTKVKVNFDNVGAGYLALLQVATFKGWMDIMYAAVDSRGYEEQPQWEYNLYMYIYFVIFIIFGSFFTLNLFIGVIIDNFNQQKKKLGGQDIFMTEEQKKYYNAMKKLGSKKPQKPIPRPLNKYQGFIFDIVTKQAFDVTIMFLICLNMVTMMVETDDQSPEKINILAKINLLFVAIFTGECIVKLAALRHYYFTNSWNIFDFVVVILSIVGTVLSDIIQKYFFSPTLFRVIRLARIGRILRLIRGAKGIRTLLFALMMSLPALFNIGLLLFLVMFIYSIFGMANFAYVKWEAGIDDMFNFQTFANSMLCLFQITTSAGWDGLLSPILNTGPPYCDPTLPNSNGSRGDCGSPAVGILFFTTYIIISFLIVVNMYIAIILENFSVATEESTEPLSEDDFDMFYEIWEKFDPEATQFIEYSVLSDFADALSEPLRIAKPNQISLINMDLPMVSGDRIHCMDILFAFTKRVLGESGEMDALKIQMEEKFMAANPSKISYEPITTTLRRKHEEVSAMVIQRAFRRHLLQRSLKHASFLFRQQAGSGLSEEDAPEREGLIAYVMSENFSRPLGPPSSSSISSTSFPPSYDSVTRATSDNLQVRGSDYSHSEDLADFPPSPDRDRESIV
Sequence of 5-hydroxytryptamine receptor 6 (P50406 whole entry): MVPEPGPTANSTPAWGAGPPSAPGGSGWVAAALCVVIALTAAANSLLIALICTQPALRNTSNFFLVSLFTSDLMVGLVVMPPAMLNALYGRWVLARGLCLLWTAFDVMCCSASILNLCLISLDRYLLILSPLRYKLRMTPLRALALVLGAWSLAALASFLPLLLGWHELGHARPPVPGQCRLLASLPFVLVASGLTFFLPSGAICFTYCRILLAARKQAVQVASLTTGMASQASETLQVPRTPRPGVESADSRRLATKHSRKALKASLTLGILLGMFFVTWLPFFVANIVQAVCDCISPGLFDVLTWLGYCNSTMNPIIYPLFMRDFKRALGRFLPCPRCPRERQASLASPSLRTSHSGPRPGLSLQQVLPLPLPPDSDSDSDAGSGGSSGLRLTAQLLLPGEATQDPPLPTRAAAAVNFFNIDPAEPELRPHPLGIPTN
Sequence of Gamma-aminobutyric acid type B receptor subunit 1 (Q9UBS5 whole entry): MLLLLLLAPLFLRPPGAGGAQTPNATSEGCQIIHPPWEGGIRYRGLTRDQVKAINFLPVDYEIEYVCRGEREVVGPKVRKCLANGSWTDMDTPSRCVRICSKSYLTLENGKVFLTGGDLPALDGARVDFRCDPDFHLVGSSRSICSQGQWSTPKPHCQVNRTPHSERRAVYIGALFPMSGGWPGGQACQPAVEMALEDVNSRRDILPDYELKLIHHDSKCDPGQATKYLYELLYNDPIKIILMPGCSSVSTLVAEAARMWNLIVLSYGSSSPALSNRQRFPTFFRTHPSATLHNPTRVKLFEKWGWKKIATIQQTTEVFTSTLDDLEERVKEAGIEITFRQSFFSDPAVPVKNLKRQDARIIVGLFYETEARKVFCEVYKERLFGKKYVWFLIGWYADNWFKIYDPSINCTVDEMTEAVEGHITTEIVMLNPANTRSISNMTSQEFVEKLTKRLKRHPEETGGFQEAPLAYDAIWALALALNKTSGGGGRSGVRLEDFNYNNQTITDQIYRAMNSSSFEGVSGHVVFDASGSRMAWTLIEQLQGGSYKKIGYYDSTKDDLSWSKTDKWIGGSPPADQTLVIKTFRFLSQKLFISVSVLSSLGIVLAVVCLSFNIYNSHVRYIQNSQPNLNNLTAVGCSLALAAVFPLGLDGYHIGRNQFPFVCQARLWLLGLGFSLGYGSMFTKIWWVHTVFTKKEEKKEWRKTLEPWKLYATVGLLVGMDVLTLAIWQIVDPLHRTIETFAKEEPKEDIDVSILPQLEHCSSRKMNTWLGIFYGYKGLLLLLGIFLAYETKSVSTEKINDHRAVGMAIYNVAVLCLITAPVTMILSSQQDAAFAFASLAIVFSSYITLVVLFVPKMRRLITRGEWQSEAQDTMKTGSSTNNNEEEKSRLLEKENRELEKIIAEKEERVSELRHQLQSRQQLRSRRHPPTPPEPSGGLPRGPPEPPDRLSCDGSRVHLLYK

C[C@]12CC[C@@H]3c4ccc(O)cc4C[C@@H](CCCCCCCCC[S+]([O-])CCCC(F)(F)C(F)(F)F)[C@H]3[C@@H]1CC[C@@H]2O (some centres not stated) [FULVESTRANT]
AC50 [1]: > 30 µM
AC50 (Androgen receptor): > 30 µM
AC50 [2]: > 10 µM
AC50 [3]: > 30 µM

C=CCNc1nc(NCC=C)nc(N2CCN(C(c3ccc(F)cc3)c3ccc(F)cc3)CC2)n1 [ALMITRINE]
AC50 (Androgen receptor): > 30 µM

CC(CCc1ccc(O)cc1)NCCc1ccc(O)c(O)c1 (configuration not stated) [DOBUTAMINE]
AC50 (Histamine H2 receptor): > 10 µM
AC50 [4]: > 10 µM
AC50 (D(1A) dopamine receptor): > 10 µM

CCC(C)C(CC)C(N)=O (configuration not stated) [VALNOCTAMIDE]
AC50 (Androgen receptor): > 30 µM
AC50 [3]: > 30 µM

CN1CCN(C2=Nc3ccccc3Oc3ccc(Cl)cc32)CC1 [LOXAPINE]
AC50 [5]: 0.671 µM
AC50 [6]: 0.0574 µM
AC50 [7]: 0.732 µM
AC50 (Cannabinoid receptor 1): > 10 µM
AC50 (D(1A) dopamine receptor): 0.102 µM
AC50 [8]: > 10 µM

O=[N+]([O-])c1ccc(O)c2ncccc12 [NITROXOLINE]
AC50 [3]: > 30 µM

Cc1cccc(N2CC(CO)OC2=O)c1 (configuration not stated) [TOLOXATONE]
AC50 (Androgen receptor): > 30 µM

CCC(=O)O[C@]1(C(=O)SCF)[C@H](C)C[C@H]2[C@@H]3C[C@H](F)C4=CC(=O)C=C[C@]4(C)[C@@]3(F)[C@@H](O)C[C@@]21C [FLUTICASONE PROPIONATE]
AC50 (Histamine H2 receptor): > 10 µM
AC50 [4]: > 10 µM
AC50 (D(1A) dopamine receptor): > 10 µM

Oc1ccc2c(c1)CC[C@H](c1ccccc1)[C@@H]2c1ccc(OCCN2CCCC2)cc1 [LASOFOXIFENE]
AC50 [1]: > 30 µM
AC50 (Androgen receptor): > 30 µM

CCC[C@H](NC(=O)[C@@H]1[C@H]2CCC[C@H]2CN1C(=O)[C@@H](NC(=O)[C@@H](NC(=O)c1cnccn1)C1CCCCC1)C(C)(C)C)C(=O)C(=O)NC1CC1
AC50 (Histamine H2 receptor): > 10 µM
AC50 [4]: > 10 µM
AC50 (D(1A) dopamine receptor): > 10 µM

CC(N)C(O)c1ccccc1 (configuration not stated) [PHENYLPROPANOLAMINE]
AC50 [5]: > 10 µM
AC50 (Histamine H2 receptor): > 10 µM
AC50 [6]: > 10 µM
AC50 [4]: > 10 µM
AC50 [7]: > 10 µM
AC50 (Cannabinoid receptor 1): > 10 µM
AC50 (D(1A) dopamine receptor): > 10 µM
AC50 [8]: > 10 µM

Cc1cnc(C(=O)NCCc2ccc(S(=O)(=O)NC(=O)NC3CCCCC3)cc2)cn1 [GLIPIZIDE]
AC50 (Histamine H2 receptor): > 10 µM
AC50 [6]: > 10 µM
AC50 [7]: > 10 µM
AC50 [8]: > 10 µM

C[C@H](Cc1ccc(O)c(O)c1)[C@@H](C)Cc1ccc(O)c(O)c1 [MASOPROCOL]
AC50 [1]: > 30 µM

CCOC(=O)C1=C(C)NC(C)=C(C(=O)OC)C1c1cccc([N+](=O)[O-])c1 (configuration not stated) [NITRENDIPINE]
AC50 (Histamine H2 receptor): > 10 µM
AC50 [4]: > 10 µM
AC50 [2]: 5 µM
AC50 (D(1A) dopamine receptor): > 10 µM

CCCN[C@H]1CCc2nc(N)sc2C1 [PRAMIPEXOLE]
AC50 (Histamine H2 receptor): 3.86 µM

COCC1=C(C(=O)O)N2C(=O)[C@@H](NC(=O)/C(=N\OC)c3csc(N)n3)[C@H]2SC1 [CEFPODOXIME]
AC50 (Androgen receptor): > 30 µM

OC1(c2ccc(Cl)cc2)c2ccccc2C2=NCCN21 (configuration not stated) [MAZINDOL]
AC50 [5]: > 10 µM
AC50 (Histamine H2 receptor): > 10 µM
AC50 [6]: > 10 µM
AC50 (Androgen receptor): > 30 µM
AC50 [4]: > 10 µM
AC50 [2]: > 50 µM
AC50 [7]: > 10 µM
AC50 (Cannabinoid receptor 1): > 10 µM
AC50 (D(1A) dopamine receptor): > 10 µM
AC50 [8]: > 10 µM

Clc1ccc2c(N3CCN(CCCN4CCN(c5ccnc6cc(Cl)ccc56)CC4)CC3)ccnc2c1 [PIPERAQUINE]
AC50 (Androgen receptor): > 30 µM

CC(C)NCC(O)c1ccc(O)c(O)c1 (configuration not stated) [ISOPROTERENOL]
AC50 (Histamine H2 receptor): > 10 µM
AC50 [4]: > 10 µM
AC50 (D(1A) dopamine receptor): > 10 µM

CCC1(c2ccccc2)CCC(=O)NC1=O (configuration not stated) [GLUTETHIMIDE]
AC50 [2]: > 50 µM

CC(C)COCC(CN(Cc1ccccc1)c1ccccc1)N1CCCC1 (configuration not stated) [BEPRIDIL]
AC50 [1]: > 30 µM
AC50 [2]: 2.1 µM

Cc1cc(C(C)(C)C)cc(C)c1CC1=NCCN1 [XYLOMETAZOLINE]
AC50 [3]: > 30 µM

C/N=C(\NC)NCc1ccccc1 [BETHANIDINE]
AC50 [1]: > 30 µM
AC50 [3]: > 30 µM

[H]/N=C(/N)N/C(=N/[H])NCCc1ccccc1 [PHENFORMIN]
AC50 (Histamine H2 receptor): > 10 µM
AC50 [4]: > 10 µM
AC50 (D(1A) dopamine receptor): > 10 µM

CN1CCC(=C2c3ccccc3CCc3cccnc32)CC1 [AZATADINE]
AC50 [4]: 0.064 µM

CN(C)CCCNc1c2ccccc2nc2cccc([N+](=O)[O-])c12 [NITRACRINE]
AC50 (Androgen receptor): > 30 µM

CCC(C)C1(CC)C(=O)NC(=O)NC1=O (configuration not stated) [BUTABARBITAL]
AC50 [1]: > 30 µM
AC50 (Androgen receptor): > 30 µM
